Results from ChEMBL document CHEMBL1909046, “DrugMatrix in vitro pharmacology data”.

What was measured:
[1] = target: Beta-1 adrenergic receptor (Homo sapiens, UniProt P08588); assay: DRUGMATRIX: Adrenergic beta1 radioligand binding (ligand: [125I] Cyanopindolol); assay type: cell membranes, CHO-K1, Membrane; conditions: cho-k1; Not Active = under 50% inhibition at 10 µM
[2] = target: T1, Type-2 angiotensin II receptor (Homo sapiens, UniProt P50052); assay type: cell-based; conditions: cho-k1; also: in other assays of this panel Not Active means under 50% inhibition at 10 µM
T1 sequence (P50052 whole entry): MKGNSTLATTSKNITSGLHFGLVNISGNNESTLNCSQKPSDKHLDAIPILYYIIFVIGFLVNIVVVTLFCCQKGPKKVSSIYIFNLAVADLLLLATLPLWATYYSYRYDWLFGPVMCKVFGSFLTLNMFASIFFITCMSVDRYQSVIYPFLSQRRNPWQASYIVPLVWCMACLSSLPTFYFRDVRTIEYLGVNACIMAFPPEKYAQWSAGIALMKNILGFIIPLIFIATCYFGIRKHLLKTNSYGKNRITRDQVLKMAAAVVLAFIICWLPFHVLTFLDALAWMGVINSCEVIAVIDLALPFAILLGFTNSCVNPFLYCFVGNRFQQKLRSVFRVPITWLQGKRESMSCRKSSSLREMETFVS

Calcitonin receptor = target: T2, Calcitonin receptor (Homo sapiens, UniProt P30988); assay type: cell membranes, Membrane; conditions: t47d; also: in other assays of this panel Not Active means under 50% inhibition at 10 µM
T2 sequence (P30988 whole entry): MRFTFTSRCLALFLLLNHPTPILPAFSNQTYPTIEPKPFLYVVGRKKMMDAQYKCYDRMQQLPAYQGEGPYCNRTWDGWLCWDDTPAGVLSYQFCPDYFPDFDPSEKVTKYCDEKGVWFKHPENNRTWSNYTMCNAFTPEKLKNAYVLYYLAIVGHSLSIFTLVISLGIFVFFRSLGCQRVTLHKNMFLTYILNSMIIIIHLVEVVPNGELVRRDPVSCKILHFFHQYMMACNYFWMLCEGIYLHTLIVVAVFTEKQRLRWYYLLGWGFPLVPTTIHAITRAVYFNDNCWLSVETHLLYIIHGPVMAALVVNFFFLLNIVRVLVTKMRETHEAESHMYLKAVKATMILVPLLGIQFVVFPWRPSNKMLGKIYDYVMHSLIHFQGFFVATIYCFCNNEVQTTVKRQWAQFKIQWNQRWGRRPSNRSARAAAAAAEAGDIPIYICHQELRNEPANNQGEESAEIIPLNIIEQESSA

[3] = target: Vascular endothelial growth factor receptor 1 (Homo sapiens, UniProt P17948); assay type: cell-based; conditions: huvec; also: in other assays of this panel Not Active means under 50% inhibition at 10 µM
[4] = target: Prostaglandin G/H synthase 1 (Homo sapiens, UniProt P23219); assay: biochemical; assay type: tissue-based, Platelet; conditions: platelet;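 also: inhibition of COX-1 enzyme activity, with arachidonic acid supplied as substrate; in other assays of this panel Not Active means under 50% inhibition at 10 µM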
[5] = DRUGMATRIX: Glutamate, NMDA, Agonism radioligand binding (ligand: [3H] CGP-39653); assay type: cell membranes, Rattus norvegicus, Wistar, Cerebral cortex, Membrane; conditions: Not Active = under 50% inhibition at 10 µM
Insulin receptor = Insulin receptor (Rattus norvegicus, UniProt P15127); assay type: cell membranes, Wistar, Liver, Membrane; also: in other assays of this panel Not Active means under 50% inhibition at 10 µM
[6] = target: Protein phosphatase 3 catalytic subunit alpha (Homo sapiens, UniProt Q08209); design: species or system Escherichia coli

Sequence of Beta-1 adrenergic receptor (P08588 whole entry): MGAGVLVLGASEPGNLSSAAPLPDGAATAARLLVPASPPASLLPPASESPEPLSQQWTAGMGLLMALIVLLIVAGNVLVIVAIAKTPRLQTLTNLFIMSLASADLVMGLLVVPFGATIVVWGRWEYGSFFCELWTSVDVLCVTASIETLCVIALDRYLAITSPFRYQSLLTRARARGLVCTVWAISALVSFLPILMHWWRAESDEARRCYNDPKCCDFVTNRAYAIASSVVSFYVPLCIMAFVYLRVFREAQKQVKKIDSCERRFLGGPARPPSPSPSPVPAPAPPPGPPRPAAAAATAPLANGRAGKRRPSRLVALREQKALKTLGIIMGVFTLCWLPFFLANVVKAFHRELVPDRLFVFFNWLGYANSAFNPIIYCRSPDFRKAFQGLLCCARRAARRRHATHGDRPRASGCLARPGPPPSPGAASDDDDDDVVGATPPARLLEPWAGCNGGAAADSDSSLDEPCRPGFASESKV
Sequence of Insulin receptor (P15127 27-759 limits assumed): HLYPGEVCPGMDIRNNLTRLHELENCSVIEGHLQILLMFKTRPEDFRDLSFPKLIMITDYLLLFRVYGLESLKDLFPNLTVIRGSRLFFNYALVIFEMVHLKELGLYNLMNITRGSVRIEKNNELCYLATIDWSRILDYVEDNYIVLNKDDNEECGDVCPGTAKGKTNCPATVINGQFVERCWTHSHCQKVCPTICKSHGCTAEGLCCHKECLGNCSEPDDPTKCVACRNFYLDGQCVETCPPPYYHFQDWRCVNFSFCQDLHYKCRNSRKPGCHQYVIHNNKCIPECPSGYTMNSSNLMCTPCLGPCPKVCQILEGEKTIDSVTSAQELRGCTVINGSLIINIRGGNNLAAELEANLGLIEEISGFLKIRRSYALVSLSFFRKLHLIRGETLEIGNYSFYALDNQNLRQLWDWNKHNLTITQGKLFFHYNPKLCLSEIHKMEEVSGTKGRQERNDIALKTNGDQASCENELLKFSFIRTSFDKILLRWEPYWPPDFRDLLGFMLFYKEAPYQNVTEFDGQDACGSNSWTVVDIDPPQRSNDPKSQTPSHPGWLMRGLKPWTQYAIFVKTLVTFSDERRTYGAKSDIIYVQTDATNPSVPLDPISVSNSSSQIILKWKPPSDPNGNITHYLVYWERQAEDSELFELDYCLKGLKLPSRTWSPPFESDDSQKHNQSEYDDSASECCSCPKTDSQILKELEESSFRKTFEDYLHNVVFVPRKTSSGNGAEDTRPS
Sequence of Insulin receptor (P15127 764-1383 limits assumed): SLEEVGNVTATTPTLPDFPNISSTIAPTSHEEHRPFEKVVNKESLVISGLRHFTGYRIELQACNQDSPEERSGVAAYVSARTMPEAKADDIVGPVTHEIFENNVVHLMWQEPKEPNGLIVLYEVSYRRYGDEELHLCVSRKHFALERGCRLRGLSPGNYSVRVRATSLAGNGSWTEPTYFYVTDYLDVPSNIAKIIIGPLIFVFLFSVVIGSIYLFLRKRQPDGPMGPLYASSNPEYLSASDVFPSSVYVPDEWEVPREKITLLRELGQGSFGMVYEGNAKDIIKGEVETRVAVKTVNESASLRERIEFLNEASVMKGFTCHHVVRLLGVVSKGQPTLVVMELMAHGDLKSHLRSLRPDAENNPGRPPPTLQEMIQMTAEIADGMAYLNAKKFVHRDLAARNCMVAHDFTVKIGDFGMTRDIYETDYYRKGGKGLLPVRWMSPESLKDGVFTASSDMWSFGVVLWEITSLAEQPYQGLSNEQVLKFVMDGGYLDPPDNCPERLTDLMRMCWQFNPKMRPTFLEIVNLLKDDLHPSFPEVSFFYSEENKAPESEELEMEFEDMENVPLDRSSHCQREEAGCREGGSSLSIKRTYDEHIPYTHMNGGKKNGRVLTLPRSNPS
Sequence of Vascular endothelial growth factor receptor 1 (P17948 whole entry): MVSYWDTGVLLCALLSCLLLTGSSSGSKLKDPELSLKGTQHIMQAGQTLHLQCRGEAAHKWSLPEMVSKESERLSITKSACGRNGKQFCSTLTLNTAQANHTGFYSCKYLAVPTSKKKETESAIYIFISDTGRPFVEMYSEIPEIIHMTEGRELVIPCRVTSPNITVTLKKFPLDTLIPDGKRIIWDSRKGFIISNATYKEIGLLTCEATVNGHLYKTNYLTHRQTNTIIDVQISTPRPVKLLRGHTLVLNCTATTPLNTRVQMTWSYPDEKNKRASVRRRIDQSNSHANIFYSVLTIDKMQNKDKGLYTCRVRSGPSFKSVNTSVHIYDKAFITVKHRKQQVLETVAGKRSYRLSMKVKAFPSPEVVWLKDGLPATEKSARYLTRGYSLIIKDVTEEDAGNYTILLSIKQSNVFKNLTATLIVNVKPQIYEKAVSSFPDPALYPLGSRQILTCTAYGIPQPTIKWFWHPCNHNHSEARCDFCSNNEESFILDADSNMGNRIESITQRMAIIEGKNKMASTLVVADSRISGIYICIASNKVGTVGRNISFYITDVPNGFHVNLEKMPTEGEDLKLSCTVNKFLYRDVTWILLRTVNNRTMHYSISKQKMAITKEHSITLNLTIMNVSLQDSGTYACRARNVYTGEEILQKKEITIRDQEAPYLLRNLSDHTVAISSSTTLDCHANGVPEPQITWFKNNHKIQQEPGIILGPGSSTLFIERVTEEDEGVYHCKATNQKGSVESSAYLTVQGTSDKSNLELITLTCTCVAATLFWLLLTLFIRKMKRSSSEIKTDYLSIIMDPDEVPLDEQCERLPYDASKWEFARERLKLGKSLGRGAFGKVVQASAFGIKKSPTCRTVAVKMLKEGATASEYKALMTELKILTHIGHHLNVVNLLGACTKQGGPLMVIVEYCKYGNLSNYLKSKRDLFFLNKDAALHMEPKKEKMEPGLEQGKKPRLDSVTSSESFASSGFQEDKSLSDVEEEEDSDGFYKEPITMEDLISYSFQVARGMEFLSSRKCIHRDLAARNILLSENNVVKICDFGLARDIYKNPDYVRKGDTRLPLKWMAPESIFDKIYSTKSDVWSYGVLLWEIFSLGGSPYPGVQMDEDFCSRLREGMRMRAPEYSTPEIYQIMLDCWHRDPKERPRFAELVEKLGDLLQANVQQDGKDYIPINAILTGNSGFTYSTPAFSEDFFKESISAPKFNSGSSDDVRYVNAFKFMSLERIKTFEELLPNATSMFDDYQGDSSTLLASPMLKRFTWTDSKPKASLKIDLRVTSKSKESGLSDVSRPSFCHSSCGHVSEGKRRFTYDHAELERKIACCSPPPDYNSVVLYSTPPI
Sequence of Prostaglandin G/H synthase 1 (P23219 whole entry): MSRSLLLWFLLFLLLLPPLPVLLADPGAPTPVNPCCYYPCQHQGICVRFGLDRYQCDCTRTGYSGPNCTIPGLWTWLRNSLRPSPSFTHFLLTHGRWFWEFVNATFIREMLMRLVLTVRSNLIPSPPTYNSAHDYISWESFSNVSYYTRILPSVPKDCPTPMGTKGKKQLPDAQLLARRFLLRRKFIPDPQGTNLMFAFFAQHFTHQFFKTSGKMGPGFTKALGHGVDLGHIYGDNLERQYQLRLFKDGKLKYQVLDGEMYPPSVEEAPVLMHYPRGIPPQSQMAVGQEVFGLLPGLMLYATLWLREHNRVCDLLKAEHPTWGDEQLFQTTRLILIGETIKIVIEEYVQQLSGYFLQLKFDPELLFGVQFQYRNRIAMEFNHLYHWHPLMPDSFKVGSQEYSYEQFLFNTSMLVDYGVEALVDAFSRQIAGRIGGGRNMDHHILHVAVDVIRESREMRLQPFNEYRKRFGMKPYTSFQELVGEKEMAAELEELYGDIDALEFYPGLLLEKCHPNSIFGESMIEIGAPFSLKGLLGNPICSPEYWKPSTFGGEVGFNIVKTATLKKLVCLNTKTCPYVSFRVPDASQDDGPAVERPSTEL

O=C(O)c1cc(/N=N/c2ccc(S(=O)(=O)Nc3ccccn3)cc2)ccc1O [SULFASALAZINE]
Not Active: IC50 [1] | IC50 [2] | IC50 (Calcitonin receptor) | IC50 [3] | IC50 [4] | IC50 [5] | Ki [5] | IC50 (Insulin receptor) | IC50 [6]

CCN1CCCC1CNC(=O)c1cc(S(N)(=O)=O)ccc1OC (stereo unspecified) [SULPIRIDE]
Not Active: IC50 [1] | IC50 [2] | IC50 (Calcitonin receptor) | IC50 [3] | IC50 [4] | IC50 [5] | Ki [5] | IC50 (Insulin receptor) | IC50 [6]

O=C(OC[C@H]1O[C@@H](OC(=O)c2cc(O)c(O)c(OC(=O)c3cc(O)c(O)c(O)c3)c2)[C@H](OC(=O)c2cc(O)c(O)c(OC(=O)c3cc(O)c(O)c(O)c3)c2)[C@@H](OC(=O)c2cc(O)c(O)c(OC(=O)c3cc(O)c(O)c(O)c3)c2)[C@@H]1OC(=O)c1cc(O)c(O)c(OC(=O)c2cc(O)c(O)c(O)c2)c1)c1cc(O)c(O)c(OC(=O)c2cc(O)c(O)c(O)c2)c1 [TANNIC ACID]
Not Active: IC50 [1] | IC50 [2] | IC50 (Calcitonin receptor) | IC50 [3] | IC50 [4] | IC50 [5] | Ki [5] | IC50 (Insulin receptor) | IC50 [6]

C#C[C@]1(O)CC[C@H]2[C@@H]3[C@H](C)CC4=C(CCC(=O)C4)[C@H]3CC[C@@]21C [TIBOLONE]
Not Active: IC50 [1] | IC50 [2] | IC50 (Calcitonin receptor) | IC50 [3] | IC50 [4] | IC50 [5] | Ki [5] | IC50 (Insulin receptor) | IC50 [6]

Cc1cccc(C)c1NC(=O)C(C)N (stereo unspecified) [TOCAINIDE]
Not Active: IC50 [1] | IC50 [2] | IC50 (Calcitonin receptor) | IC50 [3] | IC50 [4] | IC50 [5] | Ki [5] | IC50 (Insulin receptor) | IC50 [6]

Cc1ccc(S(=O)(=O)NC(=O)NN2CCCCCC2)cc1 [TOLAZAMIDE]
Not Active: IC50 [1] | IC50 [2] | IC50 (Calcitonin receptor) | IC50 [3] | IC50 [4] | IC50 [5] | Ki [5] | IC50 (Insulin receptor) | IC50 [6]

CC[C@@]1(O)C(=O)OCc2c1cc1n(c2=O)Cc2cc3c(CN(C)C)c(O)ccc3nc2-1 [TOPOTECAN]
Not Active: IC50 [1] | IC50 [2] | IC50 (Calcitonin receptor) | IC50 [3] | IC50 [4] | IC50 [5] | Ki [5] | IC50 (Insulin receptor) | IC50 [6]

CC1=C(/C=C/C(C)=C/C=C/C(C)=C/C(=O)O)C(C)(C)CCC1 [TRETINOIN]
Not Active: IC50 [1] | IC50 [2] | IC50 (Calcitonin receptor) | IC50 [3] | IC50 [4] | IC50 [5] | Ki [5] | IC50 (Insulin receptor) | IC50 [6]

CC(Cl)(Cl)Cl [TRICHLOROETHANE]
Not Active: IC50 [1] | IC50 [2] | IC50 (Calcitonin receptor) | IC50 [3] | IC50 [4] | IC50 [5] | Ki [5] | IC50 (Insulin receptor) | IC50 [6]

CN1C(=O)OC(C)(C)C1=O [TRIMETHADIONE]
Not Active: IC50 [1] | IC50 [2] | IC50 (Calcitonin receptor) | IC50 [3] | IC50 [4] | IC50 [5] | Ki [5] | IC50 (Insulin receptor) | IC50 [6]

LEAD(IV) ACETATE
Not Active: IC50 [1] | Ki [1] | IC50 [2] | Ki [2] | IC50 (Calcitonin receptor) | Ki (Calcitonin receptor) | IC50 [3] | Ki [3] | IC50 [4] | Ki [4] | IC50 [5] | Ki [5] | IC50 (Insulin receptor) | Ki (Insulin receptor) | IC50 [6] | Ki [6]
